From patent US10004711B2, “Methods and compositions comprising 10-hydroxy-2-decenoic acid” (DSM IP ASSETS B.V., priority 2014, dated 2018)

Columns and labels:
[1] = test system: Neurons from the brain's hippocampus; assay: Glutamate toxicity, mitochondrial health (TMRE); type: cell-based, rat; settings: for Mitochondrial Health (% Control): glutamate 25 μM 24 h
Protocol: Neurons from the brain's hippocampus were derived from E17 pups and incubated for 7 days. The cells were pre-treated with QBA for 48 hours and subsequently challenged with glutamate (25 μM) for 24 hours. The cultures were then stained with propidium iodide, a marker of cell death, and with tetramethylrhodamine ethyl ester (TMRE), a marker for mitochondrial health. The fluorescence of each of these markers was then quantitated with a fluorimeter.

[2] = Body weight of aged male rats fed QBA (Example 7); type: in vivo, rat
Protocol: Aged male rats were fed 10-Hydroxy-2-decenoic acid (QBA) for approximately 7 months from 11-months to 18-months of age and the weight of rats was recorded.

[3] = test system: Adult female Long-Evans rats; assay: Ovulatory cycle status of female rats with abnormal ovulatory cycles; type: in vivo, rat; settings: six weeks, count of animals
Source text: Adult female Long-Evans rats (3 months-old) with abnormal ovulatory cycles were fed diets containing 10-Hydroxy-2-decenoic acid (QBA) or no QBA for six (6) weeks. Female rats having normal ovulatory cycle were used as positive controls and were not fed QBA.

[4] = test system: Young adult female Long-Evans rats; assay: Conception index of female rats with abnormal ovulatory cycles; type: in vivo, rat; settings: for Conception Index (%): eight weeks, then mated
Protocol: Young adult female Long-Evans rats (3 months-old) with abnormal ovulatory cycles were fed diets containing 10-Hydroxy-2-decenoic acid (QBA) or no QBA for eight (8) weeks and then mated with a male rat. Female rats having normal ovulatory cycles were used as positive controls and were not fed QBA. The conception index was determined. The conception index is a measure of conception efficiency and is equal to the number of pregnancies divided by the number of discernable mating sessions multiplied by 100.

O=C(O)C=CCCCCCCCO [QBA, 10-Hydroxy-2-decenoic acid]
Mitochondrial Health (% Control) ([1]; QBA 0.10 μM pre-treatment 48 h): 101.94 % Control
Mitochondrial Health (% Control) ([1]; QBA 0.30 μM pre-treatment 48 h): 112.27 % Control
Mitochondrial Health (% Control) ([1]; QBA 1.00 μM pre-treatment 48 h): 110.50 % Control
Mitochondrial Health (% Control) ([1]; QBA 3.00 μM pre-treatment 48 h): 106.39 % Control
Mitochondrial Health (% Control) ([1]; QBA 10.00 μM pre-treatment 48 h): 111.02 % Control
Mitochondrial Health (% Control) ([1]; QBA 30.00 μM pre-treatment 48 h): 114.72 % Control
Mitochondrial Health (% Control) ([1]; QBA 100.00 μM pre-treatment 48 h): 123.80 % Control
cell health after glutamate toxicity ([1]; summary of Table 3): increased cell health
Avg Wt ([2]; QBA 0.4 mg/kg/day, study day 0): 509.6 g
Avg Wt ([2]; QBA 0.4 mg/kg/day, study day 7): 516.1 g
Avg Wt ([2]; QBA 0.4 mg/kg/day, study day 21): 524.4 g
Avg Wt ([2]; QBA 0.4 mg/kg/day, study day 29): 508.6 g
Avg Wt ([2]; QBA 0.4 mg/kg/day, study day 36): 523.1 g
Avg Wt ([2]; QBA 0.4 mg/kg/day, study day 50): 554.6 g
Avg Wt ([2]; QBA 0.4 mg/kg/day, study day 57): 559.5 g
Avg Wt ([2]; QBA 0.4 mg/kg/day, study day 64): 566.7 g
Avg Wt ([2]; QBA 0.4 mg/kg/day, study day 71): 568.6 g
Avg Wt ([2]; QBA 0.4 mg/kg/day, study day 78): 570.3 g
Avg Wt ([2]; QBA 0.4 mg/kg/day, study day 85): 577.3 g
Avg Wt ([2]; QBA 0.4 mg/kg/day, study day 92): 581.3 g
Avg Wt ([2]; QBA 0.4 mg/kg/day, study day 99): 583.8 g
Avg Wt ([2]; QBA 0.4 mg/kg/day, study day 106): 592.7 g
Avg Wt ([2]; QBA 0.4 mg/kg/day, study day 113): 593.2 g
Avg Wt ([2]; QBA 0.4 mg/kg/day, study day 120): 596.8 g
Avg Wt ([2]; QBA 0.4 mg/kg/day, study day 127): 590.7 g
Avg Wt ([2]; QBA 0.4 mg/kg/day, study day 141): 589.8 g
Avg Wt ([2]; QBA 0.4 mg/kg/day, study day 148): 578.0 g
Avg Wt ([2]; QBA 0.4 mg/kg/day, study day 155): 585.4 g
Avg Wt ([2]; QBA 0.4 mg/kg/day, study day 162): 593.6 g
Avg Wt ([2]; QBA 0.4 mg/kg/day, study day 169): 601.7 g
Avg Wt ([2]; QBA 0.4 mg/kg/day, study day 176): 573.6 g
Avg Wt ([2]; QBA 0.4 mg/kg/day, study day 182): 588.7 g
Avg Wt ([2]; QBA 0.4 mg/kg/day, study day 190): 584.1 g
Avg Wt ([2]; QBA 0.4 mg/kg/day, study day 197): 582.6 g
Avg Wt ([2]; QBA 0.4 mg/kg/day, study day 204): 580.1 g
Avg Wt ([2]; QBA 0.4 mg/kg/day, study day 211): 575.8 g
Avg Wt ([2]; QBA 0.4 mg/kg/day, study day 217): 582.6 g
Avg Wt ([2]; QBA 4 mg/kg/day, study day 0): 509.8 g
Avg Wt ([2]; QBA 4 mg/kg/day, study day 7): 518.9 g
Avg Wt ([2]; QBA 4 mg/kg/day, study day 21): 527.4 g
Avg Wt ([2]; QBA 4 mg/kg/day, study day 29): 511.6 g
Avg Wt ([2]; QBA 4 mg/kg/day, study day 36): 526.8 g
Avg Wt ([2]; QBA 4 mg/kg/day, study day 50): 567.3 g
Avg Wt ([2]; QBA 4 mg/kg/day, study day 57): 571.0 g
Avg Wt ([2]; QBA 4 mg/kg/day, study day 64): 576.4 g
Avg Wt ([2]; QBA 4 mg/kg/day, study day 71): 576.2 g
Avg Wt ([2]; QBA 4 mg/kg/day, study day 78): 584.8 g
Avg Wt ([2]; QBA 4 mg/kg/day, study day 85): 587.5 g
Avg Wt ([2]; QBA 4 mg/kg/day, study day 92): 584.3 g
Avg Wt ([2]; QBA 4 mg/kg/day, study day 99): 595.4 g
Avg Wt ([2]; QBA 4 mg/kg/day, study day 106): 592.5 g
Avg Wt ([2]; QBA 4 mg/kg/day, study day 113): 594.7 g
Avg Wt ([2]; QBA 4 mg/kg/day, study day 120): 592.2 g
Avg Wt ([2]; QBA 4 mg/kg/day, study day 127): 592.4 g
Avg Wt ([2]; QBA 4 mg/kg/day, study day 141): 593.1 g
Avg Wt ([2]; QBA 4 mg/kg/day, study day 148): 588.0 g
Avg Wt ([2]; QBA 4 mg/kg/day, study day 155): 587.8 g
Avg Wt ([2]; QBA 4 mg/kg/day, study day 162): 589.5 g
Avg Wt ([2]; QBA 4 mg/kg/day, study day 169): 594.0 g
Avg Wt ([2]; QBA 4 mg/kg/day, study day 176): 601.7 g
Avg Wt ([2]; QBA 4 mg/kg/day, study day 182): 588.0 g
Avg Wt ([2]; QBA 4 mg/kg/day, study day 190): 597.8 g
Avg Wt ([2]; QBA 4 mg/kg/day, study day 197): 597.7 g
Avg Wt ([2]; QBA 4 mg/kg/day, study day 204): 601.8 g
Avg Wt ([2]; QBA 4 mg/kg/day, study day 211): 596.6 g
Avg Wt ([2]; QBA 4 mg/kg/day, study day 217): 595.9 g
Avg Wt ([2]; QBA 12 mg/kg/day, study day 0): 508.7 g
Avg Wt ([2]; QBA 12 mg/kg/day, study day 7): 508.8 g
Avg Wt ([2]; QBA 12 mg/kg/day, study day 21): 508.0 g
Avg Wt ([2]; QBA 12 mg/kg/day, study day 29): 490.2 g
Avg Wt ([2]; QBA 12 mg/kg/day, study day 36): 511.7 g
Avg Wt ([2]; QBA 12 mg/kg/day, study day 50): 554.3 g
Avg Wt ([2]; QBA 12 mg/kg/day, study day 57): 551.4 g
Avg Wt ([2]; QBA 12 mg/kg/day, study day 64): 567.6 g
Avg Wt ([2]; QBA 12 mg/kg/day, study day 71): 574.1 g
Avg Wt ([2]; QBA 12 mg/kg/day, study day 78): 573.1 g
Avg Wt ([2]; QBA 12 mg/kg/day, study day 85): 574.6 g
Avg Wt ([2]; QBA 12 mg/kg/day, study day 92): 581.2 g
Avg Wt ([2]; QBA 12 mg/kg/day, study day 99): 584.5 g
Avg Wt ([2]; QBA 12 mg/kg/day, study day 106): 591.2 g
Avg Wt ([2]; QBA 12 mg/kg/day, study day 113): 591.2 g
Avg Wt ([2]; QBA 12 mg/kg/day, study day 120): 586.1 g
Avg Wt ([2]; QBA 12 mg/kg/day, study day 127): 593.3 g
Avg Wt ([2]; QBA 12 mg/kg/day, study day 141): 595.8 g
Avg Wt ([2]; QBA 12 mg/kg/day, study day 148): 592.9 g
Avg Wt ([2]; QBA 12 mg/kg/day, study day 155): 591.1 g
Avg Wt ([2]; QBA 12 mg/kg/day, study day 162): 580.5 g
Avg Wt ([2]; QBA 12 mg/kg/day, study day 169): 588.2 g
Avg Wt ([2]; QBA 12 mg/kg/day, study day 176): 593.0 g
Avg Wt ([2]; QBA 12 mg/kg/day, study day 182): 590.6 g
Avg Wt ([2]; QBA 12 mg/kg/day, study day 190): 599.5 g
Avg Wt ([2]; QBA 12 mg/kg/day, study day 197): 600.8 g
Avg Wt ([2]; QBA 12 mg/kg/day, study day 204): 595.5 g
Avg Wt ([2]; QBA 12 mg/kg/day, study day 211): 599.6 g
Avg Wt ([2]; QBA 12 mg/kg/day, study day 217): 593.7 g
Avg Wt ([2]; QBA 24 mg/kg/day, study day 0): 516.8 g
Avg Wt ([2]; QBA 24 mg/kg/day, study day 7): 510.9 g
Avg Wt ([2]; QBA 24 mg/kg/day, study day 21): 530.8 g
Avg Wt ([2]; QBA 24 mg/kg/day, study day 29): 512.3 g
Avg Wt ([2]; QBA 24 mg/kg/day, study day 36): 546.4 g
Avg Wt ([2]; QBA 24 mg/kg/day, study day 50): 574.6 g
Avg Wt ([2]; QBA 24 mg/kg/day, study day 57): 586.8 g
Avg Wt ([2]; QBA 24 mg/kg/day, study day 64): 594.2 g
Avg Wt ([2]; QBA 24 mg/kg/day, study day 71): 598.5 g
Avg Wt ([2]; QBA 24 mg/kg/day, study day 78): 600.7 g
Avg Wt ([2]; QBA 24 mg/kg/day, study day 85): 608.8 g
Avg Wt ([2]; QBA 24 mg/kg/day, study day 92): 614.9 g
Avg Wt ([2]; QBA 24 mg/kg/day, study day 99): 618.1 g
Avg Wt ([2]; QBA 24 mg/kg/day, study day 106): 626.7 g
Avg Wt ([2]; QBA 24 mg/kg/day, study day 113): 628.4 g
Avg Wt ([2]; QBA 24 mg/kg/day, study day 120): 628.6 g
Avg Wt ([2]; QBA 24 mg/kg/day, study day 127): 630.3 g
Avg Wt ([2]; QBA 24 mg/kg/day, study day 141): 632.0 g
Avg Wt ([2]; QBA 24 mg/kg/day, study day 148): 635.4 g
Avg Wt ([2]; QBA 24 mg/kg/day, study day 155): 636.3 g
Avg Wt ([2]; QBA 24 mg/kg/day, study day 162): 637.3 g
Avg Wt ([2]; QBA 24 mg/kg/day, study day 169): 628.4 g
Avg Wt ([2]; QBA 24 mg/kg/day, study day 176): 643.9 g
Avg Wt ([2]; QBA 24 mg/kg/day, study day 182): 646.0 g
Avg Wt ([2]; QBA 24 mg/kg/day, study day 190): 649.5 g
Avg Wt ([2]; QBA 24 mg/kg/day, study day 197): 653.3 g
Avg Wt ([2]; QBA 24 mg/kg/day, study day 204): 644.4 g
Avg Wt ([2]; QBA 24 mg/kg/day, study day 211): 647.8 g
Avg Wt ([2]; QBA 24 mg/kg/day, study day 217): 650.6 g
body weight versus control, repeated measures ANOVA ([2]; all doses versus 0 mg/kg/day QBA): small but significant increase
body weight maintenance in aging male rats ([2]; summary of Table 13): helped to maintain healthy body weight
Ovulatory Cycle Status Abnormal ([3]; QBA 0.4 mg/kg/day): 7
Ovulatory Cycle Status Normal ([3]; QBA 0.4 mg/kg/day): 8
Ovulatory Cycle Status Abnormal ([3]; QBA 4 mg/kg/day): 9
Ovulatory Cycle Status Normal ([3]; QBA 4 mg/kg/day): 6
Ovulatory Cycle Status Abnormal ([3]; QBA 12 mg/kg/day): 4
Ovulatory Cycle Status Normal ([3]; QBA 12 mg/kg/day): 11
Ovulatory Cycle Status Abnormal ([3]; QBA 24 mg/kg/day): 12
Ovulatory Cycle Status Normal ([3]; QBA 24 mg/kg/day): 3
Conception Index (%) ([4]; QBA 0.4 mg/kg/day): 112.5%
Conception Index (%) ([4]; QBA 4 mg/kg/day): 107.7%
Conception Index (%) ([4]; QBA 12 mg/kg/day): 225.0%
Conception Index (%) ([4]; QBA 24 mg/kg/day): 200.0%
conception index ([4]; summary of Table 17): increased the conception index
